Here are results for 16 molecules from ChEMBL document CHEMBL3351494, “Selenium analogues of raloxifene as promising antiproliferative agents in treatment of breast cancer” (Eur J Med Chem, 2014).

Calls of active or inactive are those of the source. The rule behind the calls is not given here.

Series [1] is described as follows: Cytotoxicity against mouse CCL8 cells after 72 hrs by MTT assay. Format: functional, cell-based. The note with it: CCL8, 72 h. (Tetrazolium assays rely on reduction of a dye to a coloured formazan, in cell work by metabolically active cells.)
Series [2] in a line: Cytotoxicity against human MES-SA cells after 72 hrs by MTT assay. Format: functional, cell-based.
Series [3] in a line: Cytotoxicity against mouse NIH/3T3 cells after 72 hrs by MTT assay. The settings on record: NIH3T3, 72 h. Format: cell-based.
A further series has as its system MCF7. Kind of series: Cytotoxicity against human MCF7 cells after 72 hrs by MTT assay. Format: functional, cell-based. The settings on record: MCF7, 72 h.
The next series concerns MG-22A. The series can be described thus: Cytotoxicity against mouse MG-22A cells after 72 hrs by MTT assay. Format: functional, cell-based.
Series [4] in a line: Acute toxicity in po dosed rat. Format: organism-based. The note with it: in vivo.
Series [5] is described as follows: Cytotoxicity against human MDA-MB-435S cells after 72 hrs by MTT assay. Format: functional, cell-based.
Series [6] in a line: Cytotoxicity against human HT1080 cells after 72 hrs by MTT assay. The settings on record: HT-1080, 72 h. Format: functional, cell-based.
The test system of a further series is CCRF S-180. Kind of series: Antitumor activity against mouse S180 cells allografted in ICR mouse assessed as tumor growth inhibition at 15 mg/kg, ip qd administered 24 hrs post tumor implantation for 9 days measured after 9 days relative to control. Format: functional, organism-based. More on the design: dose 15 mg/kg.
Series [7] concerns 4T1. Kind of series: Antitumor activity against mouse 4T1 cells allografted in BALB/c mouse assessed as tumor growth inhibition at 1.8 mg/kg, ip administered 24 hrs post tumor implantation on even days of total 9 doses for 18 days relative to control. Format: functional. The settings on record: 4T1, ip, route intraperitoneal, read-out: TGI.
For series [8], the system named is 4T1. The series can be described thus: Antitumor activity against mouse 4T1 cells allografted in BALB/c mouse assessed as tumor growth inhibition at 15 mg/kg, ip administered 24 hrs post tumor implantation on even days of total 9 doses for 18 days measured after 18 days relative to control. Format: functional.
In the next series the test system is Mus musculus. Kind of series: Toxicity in mouse 4T1 cells allografted BALB/c mouse assessed as body weight loss at 15 mg/kg, ip administered 24 hrs post tumor implantation on even days of total 9 doses for 18 days measured after 18 days relative to control. Format: organism-based. More on the design: dose 15 mg/kg, route intraperitoneal. The settings on record: in vivo, 432 h.

In general, IC50 refers to the point on the concentration scale where inhibition reaches its midpoint. One may read the LD50 as the dose at which mortality reaches 50%. Lower therefore signals greater toxicity. Take `Cl.O=C(c1ccc(OCCN2CCCC2)cc1)c1c(-c2ccc(O)cc2)[se]c2cc(O)ccc12`: the IC50 in series [1] was determined as 34 µM; in series [2], 32 µM; in series [3], 42 µM; in the series with MCF7 it was 33 µM; in the series on MG-22A, 21 µM; in series [5], 43 µM. Besides, the IC50 in series [6] was 36 µM. Further, the LD50 in series [4] was found to be 543 mg/kg.
Consider `Cl.O=C(c1ccc(OCCN2CCCCC2)cc1)c1c(-c2ccc(O)cc2)[se]c2cc(O)ccc12`, for which the IC50 turned out to be 5.4 µM in [1]; 56 µM in series [2]; 22 µM in series [3]; 35 µM with MCF7; 5.4 µM in the series with MG-22A; 3.6 µM in series [5]. In series [6], this molecule displayed an IC50 of 12 µM. The TGI entry with CCRF S-180 is “inactive”. Also, the inhibition in vivo at 1.8 mg/kg in the series on 4T1 [7] was 4%. Also, in series [4], the LD50 is 446 mg/kg. The inhibition in vivo at 15 mg/kg with 4T1 [8] (4T1, ip, route intraperitoneal, read-out: TGI) stood at 30%. For the same molecule, the Activity entry in the series on Mus musculus is “Non-toxic”.
Consider `CN(C)CCOc1ccc(C(=O)c2[se]c3cc(O)ccc3c2-c2ccc(O)cc2)cc1.Cl`, for which the IC50 was found to be 3.8 µM in [1]; 5.8 µM in [2]; 31 µM in series [3]; 17.3 µM in the series on MCF7; 3.9 µM in the series on MG-22A; 3.8 µM in series [5]. Moreover, the IC50 in series [6] was found to be 5.8 µM. This molecule also gave an LD50 in [4] of 674 mg/kg.
For `Cl.O=C(c1ccc(OCCN2CCCCC2)cc1)c1[se]c2cc(O)ccc2c1-c1ccc(O)cc1`, the IC50 in series [1] was determined as 3.6 µM; in [2], 14.3 µM; in series [3], 28 µM; in the series with MCF7 it was 25 µM; in the series on MG-22A, 3.6 µM; in [5] it was 32 µM. The molecule also yielded an IC50 in series [6] of 30 µM. The LD50 in [4] is 615 mg/kg.
In the case of `CN(C)CCOc1ccc(C(=O)c2c(-c3ccc(O)cc3)[se]c3cc(O)ccc23)cc1.Cl`, the IC50 stood at 28 µM in [1]; 51 µM in [2]; 20 µM in [3]; 22 µM in the series with MCF7; 9 µM in the series on MG-22A; 26 µM in series [5]. In [6], this molecule yielded an IC50 of 48 µM. In series [4], this molecule showed a median lethal dose (LD50) of 413 mg/kg.
Turning to `Cl.O=C(c1ccc(OCCN2CCCCC2)cc1)c1c(-c2ccc(F)cc2)[se]c2cc(F)ccc12`, the IC50 in series [1] was determined as 3.6 µM; in series [2] it was 4.5 µM; in series [3], 9 µM; with MCF7, 11.6 µM; in the series on MG-22A, 4.5 µM; in series [5] it was 3.6 µM. The same molecule returned an IC50 in series [6] of 4.5 µM. In series [4], this molecule showed an LD50 of 280 mg/kg.
For the molecule `O=[Se]([O-])[O-].[Na+].[Na+]` [SODIUM SELENITE], the IC50 in [1] was 8 µM; in [2], 29 µM; in series [3], 23 µM; in the series on MCF7 it was 17 µM; in the series on MG-22A it was 64 µM; in series [5], 12 µM. Also, half-maximal inhibition in series [6] (IC50) was put at 1.7 µM. In series [4], this molecule showed a 50% lethal dose (LD50) of 105 mg/kg.
With `CN(C)CCOc1ccc(C(=O)c2c(-c3ccc(F)cc3)[se]c3cc(F)ccc23)cc1.Cl`, the IC50 in [1] amounted to 3.8 µM; in series [2], 3.8 µM; in series [3], 11 µM; with MCF7, 6.7 µM; in the series with MG-22A, 3.8 µM; in series [5] it was 3.5 µM. The IC50 in series [6] came to 4.8 µM. In series [4], the median lethal dose (LD50) came out at 313 mg/kg.
Turning to `Cl.O=C(c1ccc(OCCN2CCOCC2)cc1)c1c(-c2ccc(O)cc2)[se]c2cc(O)ccc12`, the IC50 in [1] is 9.8 µM; in series [2], 61 µM; in [3] it was 36 µM; in the series on MCF7, 38 µM; in the series with MG-22A it was 8 µM; in series [5] it was 32 µM. Also, the IC50 in series [6] is 46 µM. The molecule further showed an LD50 in series [4] of 553 mg/kg.
As for `Cl.O=C(c1ccc(OCCN2CCOCC2)cc1)c1c(-c2ccc(F)cc2)[se]c2cc(F)ccc12`, the IC50 in [1] was 25 µM; in series [2], 53 µM; in [3], 363 µM; in the series with MCF7, 121 µM; with MG-22A, 21 µM; in series [5], 168 µM. Moreover, in series [6], the IC50 stood at 27 µM. The molecule further gave an LD50 in series [4] of 1410 mg/kg.
In the case of `CCCCCCCCN(C)CCOc1ccc(C(=O)c2c(-c3ccc(O)cc3)[se]c3cc(O)ccc23)cc1.Cl`, the IC50 in series [1] worked out at 4.7 µM; in series [2], 4 µM; in series [3], 8 µM; in the series on MCF7, 4.7 µM; with MG-22A, 3.2 µM; in series [5], 4 µM. The molecule also showed an IC50 in [6] of 4.7 µM. The same molecule showed an LD50 in [4] of 308 mg/kg.
For the molecule `Cl.O=C(c1ccc(OCCN2CCOCC2)cc1)c1[se]c2cc(O)ccc2c1-c1ccc(O)cc1`, the IC50 stood at 3.4 µM in series [1]; 6.9 µM in series [2]; 16 µM in series [3]; 31 µM in the series on MCF7; 5.2 µM in the series on MG-22A; 15.5 µM in series [5]. In series [6], this molecule came in with an IC50 of 8.6 µM. Also, the LD50 in series [4] was 465 mg/kg.
As for `CNCCOc1ccc(C(=O)c2c(-c3ccc(O)cc3)[se]c3cc(O)ccc23)cc1.Cl`, the IC50 in series [1] amounted to 46 µM; in series [2], 42 µM; in [3], 32 µM; with MCF7, 12 µM; in the series with MG-22A, 6 µM; in [5], 17 µM. The same molecule had an IC50 in series [6] of 6 µM. This molecule also registered an LD50 in series [4] of 452 mg/kg.
Take `O=C(c1ccc(OCCN2CCCCC2)cc1)c1c(-c2ccc(O)cc2)sc2cc(O)ccc12` [RALOXIFENE]: the concentration for half-maximal inhibition (IC50) was 27 µM in series [1]; 37 µM in series [2]; 7.8 µM in series [3]; 50 µM in the series on MCF7; 6.8 µM in the series with MG-22A; 26 µM in [5]. Moreover, the IC50 in [6] amounted to 34 µM. For the same molecule, the TGI entry in the series on CCRF S-180 and in the series with 4T1 [8] was “inactive” each time. The inhibition in vivo at 1.8 mg/kg in the series with 4T1 [7] worked out at 70%. The molecule further registered an LD50 in series [4] of 255 mg/kg.
For `C[N+](C)(C)CCOc1ccc(C(=O)c2c(-c3ccc(O)cc3)[se]c3cc(O)ccc23)cc1.[Cl-]`, the IC50 is 452 µM in series [3], 124 µM in the series on MG-22A and 131 µM in series [6]. Besides, the LD50 in [4] turned out to be 1540 mg/kg.
As for `Cl.O=C(c1ccc(OCCN2CCCCCC2)cc1)c1c(-c2ccc(O)cc2)[se]c2cc(O)ccc12`, the IC50 in [1] worked out at 36 µM; in series [2] it was 39 µM; in [3] it was 14 µM; with MCF7 it was 40 µM; with MG-22A, 5.2 µM; in series [5], 14 µM. The IC50 in series [6] is 27 µM. In series [4], this molecule came in with an LD50 of 400 mg/kg.
